From patent publication US10570097B2, “Antimicrobial imidazolium compounds” (AGENCY FOR SCIENCE, TECHNOLOGY AND RESEARCH, priority 2014, dated 2020)
Read-outs that look alike come from different tables or passages of the source.

Legend:
E. coli [1] = assay: Minimum inhibitory concentration by microdilution assay; format: cell-based, Escherichia coli (ATCC 25922); details: for MIC E. coli: 37° C., 24 h
Protocol: (§1) Staphylococcus aureus (ATCC 6538, gram-positive), Escherichia coli (ATCC 25922, gram-negative), Pseudomonas aeruginosa (gram-negative), and Candida albicans (ATCC 10231, yeast) were used as representative microorganisms to challenge the antimicrobial functions of the imidazolium salts. All bacteria and yeast were stored frozen at −80° C., and were grown overnight at 37° C. in Tryptic Soy broth (TSB) prior to experiments. Yeast was grown overnight at 22° C. in Yeast Mold (YM) broth. Subsamples of these cultures were grown for 3 h further and diluted to give an optical density value of 0.07 at 600 nm, corresponding to 3×10^8 CFU mL^−1 (MacFarland's Standard).
(§2) The oligomer compounds were dissolved in PBS at a concentration of 1 mg mL^1 and the minimal inhibitory concentrations (MICs) were determined by microdilution assay. Typically, a 100 μL microbial solutions (containing 3×10^8 cells mL^−1) were added to 100 μL of PBS containing the test imidazolium salts (normally ranging from […] in serial two-fold dilutions) in each well of the 96-well microtiter plate. The plates were incubated at 37° C. for 24 h with shaking at 300 rpm, with monitoring at the 2, 4, 6, 8, and 24 h time points. […] Broth and PBS solution containing microbial cells alone were used as negative controls, and experiments were run in triplicates.

S. aureus = assay: as above; format: cell-based, Staphylococcus aureus (ATCC 6538); details: 37° C., 24 h
Protocol: as §1, §2

P. aeruginosa = assay: as above; format: cell-based, Pseudomonas aeruginosa; details: 37° C., 24 h
Protocol: as §1, §2

C. Albicans = assay: as above; format: cell-based, Candida albicans (ATCC 10231); details: 24 h
Protocol: as §1, §2

[2] = test system: 4 microbes (S. aureus, E. coli, P. aeruginosa, C. Albicans); assay: MIC over the 4 microbes tested (geometric mean); format: cell-based; details: geometric mean of the MICs of the 4 microbes
Protocol: Staphylococcus aureus (ATCC 6538, gram-positive), Escherichia coli (ATCC 25922, gram-negative), Pseudomonas aeruginosa (gram-negative), and Candida albicans (ATCC 10231, yeast) were used as representative microorganisms to challenge the antimicrobial functions of the imidazolium salts. All bacteria and yeast were stored frozen at −80° C., and were grown overnight at 37° C. in Tryptic Soy broth (TSB) prior to experiments. Yeast was grown overnight at 22° C. in Yeast Mold (YM) broth. […] Typically, a 100 μL microbial solutions (containing 3×10^8 cells mL^−1) were added to 100 μL of PBS containing the test imidazolium salts (normally ranging from […] in serial two-fold dilutions) in each well of the 96-well microtiter plate. The plates were incubated at 37° C. for 24 h with shaking at 300 rpm, with monitoring at the 2, 4, 6, 8, and 24 h time points. […] Broth and PBS solution containing microbial cells alone were used as negative controls, and experiments were run in triplicates. The selectivity of the materials was also further assessed, by calculating the selectivity indices (SI), a measure and a comparison of safety and efficacies of each oligomer compound. […] Herein, the more stringent control of HC10 value was chosen over the HC50 value often reported in literature.

[3] = test system: rat red blood cells (RBCs); assay: Hemolysis; format: cell-based
Protocol: Before these materials can be used in systemic applications, selectivity of these materials for microbial cells over mammalian cells should also be considered. Such selectivity is often determined by observation of hemolysis. Hemolysis was performed in the following manner, fresh rat red blood cells (RBCs) were diluted with PBS buffer to give an RBC stock suspension (4 vol % blood cells). A 100 μL aliquot of RBC stock was added to a 96-well plate containing […] oligomer compound stock solutions of various concentrations (serial 2-fold dilution in PBS). After 1 h incubation at 37° C., The contents of each well was pipetted into a microcentrifuge tube and then centrifuged at 4000 rpm for 5 min. Hemolytic activity was determined as a function of hemoglobin release by measuring OD576 of […] of the supernatant. A control solution that contained only PBS was used as a reference for 0% hemolysis. 100% hemolysis was measured by adding 0.5% Triton-X to the RBCs. [formula] The selectivity of the materials was also further assessed, by calculating the selectivity indices (SI), a measure and a comparison of safety and efficacies of each oligomer compound. […] Herein, the more stringent control of HC10 value was chosen over the HC50 value often reported in literature.

E. coli [4] = assay: Time kill kinetics; format: cell-based, Escherichia coli; details: for fast killing in words: E. coli time kill; for % kill / Log reduction: E. coli, 4MIC, two minutes
Protocol: Time kill studies of the soligome compounds against E. coli were also studied. The experimental setup for time kill kinetics was similar to the set up for MBC determination. The microbes were treated with oligomer compounds at 4MIC concentration, and samples were taken out of each well at 2 minutes. 500 μl of cell suspension was removed, rescued by a series of 10-fold dilutions with growth medium, and kept on ice until plating. For plating, 50 μl to 200 μl of the diluted samples was spread on growth medium agar plates and colonies were counted after overnight incubation at 37° C.

[5] = Critical micellar concentration (pyrene fluorescent probe); format: physicochemical; details: for CMC in PBS: PBS buffer solution; for CMC in DI H2O: deionised water
Protocol: The CMC values of the oligomer compounds were determined in both deionised (DI) water and PBS, using a LS50B luminescence spectrometer (Perkin Elmer, United States) and employing pyrene as a fluorescent probe. A known weight of the oligomer compound was dissolved in either 2 mL of DI water or PBS in a 4 mL glass vial and serial dilutions were effected. 10 μL of pyrene stock solution in acetone (6.16×10^-5 M) was added to each vial containing 1 mL of a known concentration of the oligomer compound, and the acetone was then evaporated at room temperature. The solution was allowed to equilibrate overnight and the final concentration of pyrene in each vial was 6.16×10^-7 M. The excitation spectra of the solutions were scanned from 300 to 360 nm with an emission wavelength of 395 nm, and both the excitation and emission bandwidths were set at 2.5 nm. The intensity ratios ([…]/[…]) were plotted against polymer concentration. The CMC value was given by the intersection of the tangent to the curve at the inflection and the tangent of the points at low polymer concentrations.

[6] = Gelling properties in solvents (tube inversion test); format: physicochemical
Protocol: Gels were prepared by weighing the imidazolium oligomer compounds directly into 4 mL glass vials and subsequently adding a known weight or volume of the solvent. The vials containing both the imidazolium and the solvent were either vortexed or sonicated to ensure that the imidazolium was dissolved and dispersed thoroughly before being placed in a 4° C. fridge overnight. The tube inversion test method was used to examine gel formation in different solvents.

[7] = lowest concentration that induces 10% or more hemolysis, rat RBCs, 1 h, 37° C., maximum tested 100,000 ppm

SMILES | MIC S.A. (S. aureus) | MIC E. coli (E. coli [1]) | MIC P.A. (P. aeruginosa) | MIC C.A. (C. Albicans) | MIC GM [2] | State in solvent ([6]; Acetone) | State in solvent ([6]; Acetonitrile) | Concentration to form gel ([6]; EtOH) | State in solvent ([6]; EtOH) | State in solvent ([6]; Ethylene glycol) | State in solvent ([6]; Glycerol) | Concentration to form gel ([6]; nBuOH) | State in solvent ([6]; nBuOH) | Concentration to form gel ([6]; nPrOH) | State in solvent ([6]; nPrOH) | CMC in PBS [5] | CMC in DI H2O [5] | fast killing in words (E. coli [4]) | % kill (E. coli [4]) | HC10 [3, 7] | further results
CCCCCCCC[n+]1ccn(C)c1.[Br-] [1-Methyl-3-octyl imidazolium bromide, reference compound] |  |  |  |  |  |  |  |  |  |  |  |  |  |  |  |  |  |  |  |  | MIC (E. coli [1]; Escherichia coli, Example 8, microbe not named, E. coli context): 1000 µg/mL; MIC relative to Compound 2 (E. coli [1]; ratio of MIC to that of Compound 2): more than 100 times
CCCCCCCCCC[n+]1ccn(Cc2ccc(C[n+]3ccn(Cc4ccc(C[n+]5ccn(Cc6ccccc6Cn6cc[n+](Cc7ccc(Cn8cc[n+](Cc9ccc(Cn%10cc[n+](CCCCCCCCCC)c%10)cc9)c8)cc7)c6)c5)cc4)c3)cc2)c1.[Br-].[Br-].[Cl-].[Cl-].[Cl-].[Cl-] [Compound 3] | 4 µg/mL | 8 µg/mL | 8 µg/mL | 31 µg/mL | 9.44 µg/mL | Insoluble | Insoluble | (12 wt %) | Gel | Solution | Solution | (7.9 wt %) | Gel | (7.9 wt %) | Gel |  |  | instantaneous elimination | >99.9% |  | HC10 [3]: 500 ppm; Log reduction (E. coli [4]): 3.49; sharp point of inflection indicating the critical micellar concentrations ([5]; FIG. 4, deionized water): not observed
CCCCCCCCCCCC[n+]1ccn(Cc2ccc(C[n+]3ccn(Cc4ccc(C[n+]5ccn(Cc6ccccc6Cn6cc[n+](Cc7ccc(Cn8cc[n+](Cc9ccc(Cn%10cc[n+](CCCCCCCCCCCC)c%10)cc9)c8)cc7)c6)c5)cc4)c3)cc2)c1.[Br-].[Br-].[Cl-].[Cl-].[Cl-].[Cl-] [Compound 4] | 4 µg/mL | 8 µg/mL | 16 µg/mL | 31 µg/mL | 11.22 µg/mL | Insoluble | Insoluble | (9.0 wt %) | Gel | Solution | Solution | (5.8 wt %) | Gel | (7.2 wt %) | Gel | 10.9 ppm | 938.5 ppm | instantaneous elimination | >99.9% | 31 ppm | Log reduction (E. coli [4]): 3.69; Gel formation ([6]; binary mixtures of water/ethanol and glycerol/ethanol): did not form a gel

Continued, in another order:

MIC S.A. (S. aureus) | MIC E. coli (E. coli [1]) | MIC P.A. (P. aeruginosa) | MIC C.A. (C. Albicans) | MIC GM [2] | State in solvent ([6]; Acetone) | State in solvent ([6]; Acetonitrile) | Concentration to form gel ([6]; EtOH) | State in solvent ([6]; EtOH) | State in solvent ([6]; Ethylene glycol) | State in solvent ([6]; Glycerol) | Concentration to form gel ([6]; nBuOH) | State in solvent ([6]; nBuOH) | Concentration to form gel ([6]; nPrOH) | State in solvent ([6]; nPrOH) | CMC in PBS [5] | CMC in DI H2O [5] | SMILES | fast killing in words (E. coli [4]) | % kill (E. coli [4]) | HC10 [3, 7] | further results
4 µg/mL | 16 µg/mL | 16 µg/mL | 31 µg/mL | 13.35 µg/mL | Insoluble | Insoluble | (12.9 wt %) | Gel | Solution | Solution | (5.3 wt %) | Gel | (5.3 wt %) | Gel | 4.9 ppm | 200.3 ppm | CCCCCCCCCCCCCC[n+]1ccn(Cc2ccc(C[n+]3ccn(Cc4ccc(C[n+]5ccn(Cc6ccccc6Cn6cc[n+](Cc7ccc(Cn8cc[n+](Cc9ccc(Cn%10cc[n+](CCCCCCCCCCCCCC)c%10)cc9)c8)cc7)c6)c5)cc4)c3)cc2)c1.[Br-].[Br-].[Cl-].[Cl-].[Cl-].[Cl-] [Compound 5] |  |  | 15 ppm | 
8 µg/mL | 16 µg/mL | 16 µg/mL | 62 µg/mL | 18.88 µg/mL | Insoluble | Insoluble | (9.6 wt %) | Gel | opaque gels and Gel | opaque gels and Gel | (6.9 wt %) | Gel | (6.9 wt %) | Gel | 1.3 ppm | 38.5 ppm | CCCCCCCCCCCCCCCC[n+]1ccn(Cc2ccc(C[n+]3ccn(Cc4ccc(C[n+]5ccn(Cc6ccccc6Cn6cc[n+](Cc7ccc(Cn8cc[n+](Cc9ccc(Cn%10cc[n+](CCCCCCCCCCCCCCCC)c%10)cc9)c8)cc7)c6)c5)cc4)c3)cc2)c1.[Br-].[Br-].[Cl-].[Cl-].[Cl-].[Cl-] [Compound 6] |  |  | 15 ppm | Concentration to form gel ([6]; Ethylene glycol): (4.7 wt %); Concentration to form gel ([6]; Glycerol): (6.3 wt %)
8 µg/mL | 16 µg/mL | 16 µg/mL | 31 µg/mL | 15.87 µg/mL |  |  |  |  |  |  |  |  |  |  |  |  | [Br-].[Br-].[Cl-].[Cl-].[Cl-].[Cl-].c1ccc(Cn2cc[n+](Cc3ccc(Cn4cc[n+](Cc5ccc(Cn6cc[n+](CC7CCCCC7)c6)cc5)c4)cc3)c2)c(Cn2cc[n+](Cc3ccc(Cn4cc[n+](Cc5ccc(Cn6cc[n+](CC7CCCCC7)c6)cc5)c4)cc3)c2)c1 [Compound 7] |  |  | 12500 ppm | Gel formation ([6]; any of the solvents): not able to form gels
